Read-outs that look alike come from different tables or passages of the source.
Legend:
[1] = Effect of steady-state gemcabene 600 mg on single-dose pharmacokinetics of ON 1/35 (ethinyl estradiol/norethindrone) in healthy female subjects; assay type: in vivo, human; settings: for exposure in presence of gemcabene calcium salt hydrate Crystal Form 1 (geometric LS mean ratio): single dose ON 1/35 with gemcabene 600 mg daily at steady state, mild drug-drug interaction
Description: (§1) An open-label, two-sequence, cross-over study to assess the steady-state effects of gemcabene on the single-dose pharmacokinetics (PK) of oral contraceptive tablets in healthy female subjects was conducted with 300 mg tablets containing gemcabene calcium salt hydrate Crystal Form 1 having PSD90 of 52 μm (Tablet F).
(§2) The population for this study was generally healthy, adult female subjects of childbearing potential (≥18 to ≤35 years of age). This population supports the overall objective of the study to evaluate the effect of 600 mg of gemcabene calcium salt hydrate Crystal Form 1 having PSD90 of 52 μm at steady-state on the PK of a single dose of ON 1/35 (Ortho Novum 1/35; combined ethinyl estradiol/norethindrone oral contraceptive). The primary objective of this study was to assess the effect of daily 600 mg of gemcabene calcium salt hydrate Crystal Form 1 having PSD90 of 52 μm at steady-state on the pharmacokinetics (PK) of ON 1/35. The secondary objectives of this study were to assess the safety and tolerability of daily gemcabene 600 mg in combination with a single-dose ON 1/35 and to assess the steady-state PK of 600 mg of gemcabene calcium salt hydrate Crystal Form 1 having PSD90 of 52 μm (Tablet F×2).
(§3) Gemcabene calcium salt hydrate Crystal Form 1 having PSD90 of 52 μm was administered orally as a single dose of 600 mg, given as two 300 mg tablets (300-mg Tablet F×2) (with 240 mL of water). Gemcabene calcium salt hydrate Crystal Form 1 having PSD90 of 52 μm (600 mg) was administered at the same time each day.
Non-compartmental PK single-dose parameters were obtained, including Cmax, time to the maximum observed plasma concentration (Tmax), AUC from time 0 to time of last detectable concentration (AUClast) and when possible, AUC extrapolated to infinite time (AUC∞), percent of AUC∞ obtained from forward extrapolation (AUCextrap %), apparent terminal rate constant (λz), apparent terminal half-life ([…]), apparent total body clearance (CL/F), and apparent volume of distribution of the terminal phase (Vz/F) for ethinyl estradiol and norethindrone.

[2] = Steady-state plasma gemcabene pharmacokinetics, 600 mg daily, healthy female subjects; assay type: in vivo; settings: human, oral
Description: as §1, §2, §3

[3] = Steady-state pharmacokinetics of gemcabene at 300, 600, 900 mg/day in FH patients; assay type: in vivo, human; settings: for Cmax / AUC(0-t) / CL/F: mean
Description: This was an open-label, dose-finding, 3-period, 3-treatment study using successively escalating doses of 300 mg, 600 mg, and 900 mg gemcabene calcium salt hydrate Crystal Form 1 having PSD90 of 52 μm in patients clinically diagnosed with familial hypercholesterolemia (FH). The treatment plan was for each of 8 patients to receive each of the successive doses, daily, for 4 weeks at a time with no interruption in gemcabene calcium salt hydrate Crystal Form 1 dosing between the dose levels. That is, the 8 FH patients were administered daily oral doses of gemcabene calcium salt hydrate Crystal Form 1 having PSD90 of 52 μm at 300 mg/day on Days 1-28, 600 mg/day on Days 29-56, and 900 mg/day on Days 57-84. Pharmacokinetic plasma samples were collected pre-dose and 0.5, 1, 2, 3, 5, and 12 hours post-dose on Day 28, Day 56, and Day 84. Additional (trough) samples were collected pre-dose on Day 14, Day 42, Day 70, and at the Early Termination Visit (if applicable). Plasma from these samples were analyzed for gemcabene concentrations and the data used for PK analysis. Plasma sample concentrations were available for pharmacokinetic analysis for all but 1 patient for whom no results were reported following the 900 mg dose on Day 84. Since there were no days off between dose levels, the starting plasma concentration for the 600 mg and 900 mg treatment periods was the steady state concentration for 300 mg and 600 mg, respectively.
During Days 1-28, patients received one 300-mg strength tablet containing gemcabene calcium salt hydrate Crystal Form 1 having PSD90 of 52 μm (Tablet D); during the Days 29-56, patients received two 300-mg strength tablets (2× Tablet D); and during the Days 57-84, patients received three 300-mg strength tablets (3× Tablet D) per day.
PK parameter estimates were derived by standard non-compartmental analysis methods using a validated installation of Phoenix® WinNonlin® version 6.4. The actual sampling times were used in the PK parameter calculations.
All plasma concentrations reported as missing were treated as missing. Steady state was assumed following QD administration for 28 days and therefore, plasma gemcabene concentrations at 24 hours post-dose were used as the pre-dose concentrations.
The following gemcabene PK parameters were calculated for each patient from the plasma concentration-time data:
AUClast and AUC(0-24) were calculated by numeric integration using the trapezoidal rule with linear up and log down interpolation.
The criterion for dose proportionality is 95% CI around the slope containing the value “1”.
The individual patient and gemcabene concentration-time data are listed using the number of significant digits or decimal places provided by the bioanalytical lab and nominal sample times, and summarized descriptively in tabular formats by dose level, and visit (for trough samples).

[4] = female, human, in vivo
Description: as §1
as §2, with “F×2). […]” for “F×2).”

[5] = Treatment B = single dose ON 1/35 and daily gemcabene 600 mg, Treatment A = single dose ON 1/35 alone, healthy female subjects

Compound: C#C[C@]1(O)CC[C@H]2[C@@H]3CCc4cc(O)ccc4[C@H]3CC[C@@]21C [ethinyl estradiol]
- AUC0-12 (h*pg/mL): Ratio Geom. LS Mean (Treatment B/Treatment A) [1, 5]: 78.54%
- AUClast (h*pg/mL): Ratio Geom. LS Mean (Treatment B/Treatment A) [1, 5]: 86.70%
- Cmax (pg/mL): Ratio Geom. LS Mean (Treatment B/Treatment A) [1, 5]: 70.50%
- exposure in presence of gemcabene calcium salt hydrate Crystal Form 1 (geometric LS mean ratio) [1]: slightly decreased

Compound: CC(C)(CCCCOCCCCC(C)(C)C(=O)O)C(=O)O [gemcabene, 6-(5-carboxy-5-methyl-hexyloxy)-2,2-dimethyl-hexanoic acid]
- concentration at 6 day ([2]; Day 6, Treatment B, read-out: mean plasma gemcabene trough concentration): 98.8 µg/mL
- concentration at 7 day ([2]; Day 7, Treatment B, read-out: mean plasma gemcabene trough concentration): 106 µg/mL
- concentration at 8 day ([2]; Day 8, Treatment B, read-out: mean plasma gemcabene trough concentration): 104 µg/mL
- Cmax ([2]; steady state, read-out: mean Cmax,ss): 178 µg/mL
- dose proportionality of AUC(0-24) ([3]; 300 mg/day to 900 mg/day): increased dose proportionally
- dose proportionality of Cmax ([3]; 300 mg/day to 900 mg/day): slightly less than dose proportional
- Cmax ([3]; human, oral, 300 mg/day (Tablet D), Day 28 steady state, FH patients, plasma, n=8): 84.8 µg/mL
- Cmax ([3]; human, oral, 600 mg/day (2× Tablet D), Day 56 steady state, FH patients, plasma, n=8): 149 µg/mL
- Cmax ([3]; human, oral, 900 mg/day (3× Tablet D), Day 84 steady state, FH patients, plasma, n=7): 195 µg/mL
- AUC(0-t) ([3]; human, plasma, oral, 300 mg/day, 300 mg/day (Tablet D), steady state, FH patients, n=8, read-out: AUC0-24): 1550 µg·h/mL
- AUC(0-t) ([3]; human, plasma, oral, 300 mg/day, 300 mg/day (Tablet D), steady state, FH patients, n=8, read-out: AUClast): 1590 µg·h/mL
- AUC(0-t) ([3]; human, plasma, oral, 600 mg/day, 600 mg/day (2× Tablet D), steady state, FH patients, n=8, read-out: AUC0-24): 2680 µg·h/mL
- AUC(0-t) ([3]; human, plasma, oral, 600 mg/day, 600 mg/day (2× Tablet D), steady state, FH patients, n=8, read-out: AUClast): 2700 µg·h/mL
- AUC(0-t) ([3]; human, plasma, oral, 900 mg/day, 900 mg/day (3× Tablet D), steady state, FH patients, n=7, read-out: AUC0-24): 3530 µg·h/mL
- AUC(0-t) ([3]; human, plasma, oral, 900 mg/day, 900 mg/day (3× Tablet D), steady state, FH patients, n=7, read-out: AUClast): 3490 µg·h/mL
- Tmax ([3]; human, plasma, oral, 300 mg dose level, after 28 daily doses, min-max 1.0-2.0 h, read-out: Median Tmax): 1.6 h
- CL/F ([3]; human, plasma, oral, 300 mg/day (Tablet D), steady state, FH patients, n=8): 3.55 mL/min
- Tmax ([3]; human, plasma, oral, 300 mg/day (Tablet D), steady state, FH patients, median, n=8, read-out: Tmax): 1.6 h
- Tmax ([3]; human, plasma, oral, 600 mg dose level, after 28 daily doses, min-max 0.93-3.0 h, read-out: Median Tmax): 1.5 h
- CL/F ([3]; human, plasma, oral, 600 mg/day (2× Tablet D), steady state, FH patients, n=8): 3.9 mL/min
- Tmax ([3]; human, plasma, oral, 600 mg/day (2× Tablet D), steady state, FH patients, median, n=8, read-out: Tmax): 1.5 h
- Tmax ([3]; human, plasma, oral, 900 mg dose level, after 28 daily doses, min-max 0.98-3.0 h, read-out: Median Tmax): 1.9 h
- CL/F ([3]; human, plasma, oral, 900 mg/day (3× Tablet D), steady state, FH patients, n=7): 4.52 mL/min
- Tmax ([3]; human, plasma, oral, 900 mg/day (3× Tablet D), steady state, FH patients, median, n=7, read-out: Tmax): 1.9 h
- concentration at 14 day of the 900 mg/day period ([3]; human, plasma, oral, 900 mg/day treatment period, Day 14, read-out: trough gemcabene plasma concentration, patient 006-003): 122 µg/mL
- concentration at 28 day of the 900 mg/day period ([3]; human, plasma, oral, 900 mg/day treatment period, Day 28, read-out: trough gemcabene plasma concentration, patient 006-003): 43500 ng/mL
- Tmax ([3]; human, plasma, oral, 300 to 900 mg/day, read-out: median Tmax values across dose levels): 1.5 to 1.9 h
- subjects with drug-related TEAE (constipation) [4]: 1 subject

Compound: C#C[C@]1(O)CC[C@H]2[C@@H]3CCC4=CC(=O)CC[C@@H]4[C@H]3CC[C@@]21C [norethindrone]
- AUCinf (h*pg/mL): Ratio Geom. LS Mean (Treatment B/Treatment A) [1, 5]: 86.33%
- AUClast (h*pg/mL): Ratio Geom. LS Mean (Treatment B/Treatment A) [1, 5]: 85.94%
- Cmax (pg/mL): Ratio Geom. LS Mean (Treatment B/Treatment A) [1, 5]: 90.56%
- exposure in presence of gemcabene calcium salt hydrate Crystal Form 1 (geometric LS mean ratio) [1]: slightly decreased

Source: patent US20200148617A1, “GEMCABENE, PHARMACEUTICALLY ACCEPTABLE SALTS THEREOF, COMPOSITIONS THEREOF AND METHODS OF USE THEREFOR” (GEMPHIRE THERAPEUTICS INC., priority 2017, published 2020)
